Assay results reported in patent US9072791B2, “Photostabilized pharmaceutical compositions” (DENKI KAGAKU KOGYO KABUSHIKI KAISHA, priority 2008, dated 2015).
“And” between values parts separate entries of the source, which are not always exact repeats. Equal values may be shown once. Read-outs that look alike come from different tables or passages of the source.

Experiments:
Type in all cases: physicochemical
[1] = Fluorescing of the HA-MTX conjugate upon irradiation with light at specified wavelengths (Example 1); parameters: key: rated “+” when strong emission was observed after the irradiation; rated “−” when the emission after the irradiation was not different from the emission before the irradiation
Description: The HA-MTX conjugate obtained in Production 1 was dissolved in 0.9% NaCl containing 2 mM phosphate buffer (pH 7.3) to give a concentration of 9.9 mg/ml in terms of HA and the solution was irradiated with light at varying wavelengths (260 nm, 310 nm, 360 nm, and 405 nm) using a fluorescence detector for liquid chromatography (product of Hitachi, Ltd.; fluorescence detector of model F1050) to observe the gelation and fluorescing of the conjugate. To evaluate the gelation, the surface of the sample solution was pierced with a spatula and visually checked for the formation of an interface as the result of gelation. To observe fluorescing, the sample was irradiated with exciting light and the state of light emission from the sample was observed by direct visual checking before and after the irradiation; the result was rated “+” when strong emission was observed after the irradiation but rated “−” when the emission after the irradiation was not different from the emission before the irradiation.

[2] = Effect of photostabilizers on the excitation spectra of the HA-MTX conjugate (Example 4(1)); details: fluorescence at 458 nm
Description: Various photostabilizers (methyl p-hydroxybenzoate (methyl paraben), salicylic acid Na, thiosulfuric acid Na, and N-acetyltryptophan) were each dissolved in a preparation buffer (0.9% NaCl containing 2 mM phosphate buffer (pH 7.4)) to give a concentration of 9 mg/ml (but 0.9 mg/ml in the case of methyl paraben) and thereafter filtered aseptically by passage through a 0.2-μm filter (Millex GV). […] The test samples and the control were irradiated with light at 300-480 nm and the intensity of fluorescence at 458 nm was measured.

[3] = Photostability test in glass vials not shielded from light: gelation, molecular weight, percent conjugation of MTX (Example 4(2))
Description: Various photostabilizers (methyl p-hydroxybenzoate (methyl paraben), salicylic acid Na, thiosulfuric acid Na, thioglycolic acid Na, N-acetyltryptophan, and tryptophan) were each dissolved in a preparation buffer (0.9% NaCl containing 2 mM phosphate buffer, pH 7.4) to give a concentration of 1 or 10 mg/ml and thereafter filtered aseptically by passage through a 0.2-μm filter (Millex GV). A powder of the HA-MTX conjugate prepared in accordance with Production 1 was metered aseptically and dissolved in the filtered, photostabilizer-containing preparation buffer to give a concentration of 10 mg/mL; the thus prepared solutions were used as test samples. To prepare a control solution, the HA-MTX conjugate was dissolved in a photostabilizer-free preparation buffer at a concentration of 10 mg/mL.
The thus prepared solutions were put into glass vials not shielded from light and then irradiated with light.
The irradiation was so performed as to give an illuminance of 4000 Lux at 25° C. from a fluorescent lamp for use in a photostability test (TOSHIBA FL20S•D-EDL-D65) by means of a photostability tester (ETAC LABONIC LA110). After the lapse of specified periods (0 h, 25 h, 50 h, 100 h, 150 h, and 300 h) of irradiation, samples were taken and not only checked for gelation but also measured for the molecular weight of the HA-MTX conjugate and the percent conjugation of MTX (in the HA-MTX conjugate).
To evaluate the degree of gelation, the surface of each sample solution was pierced with a spatula and visually checked for the formation of an interface as the result of gelation. […] The apparatus used in gel filtration chromatography was equipped with OHpackSB-806HQ (Shodex) as a column, RI-71 (Shodex) as an […], and 875-UV (JASCO, detection wavelength: 304 nm) as a UV detector and analysis was conducted under the following conditions. Eluent: 50 mM sodium phosphate aqueous solution (pH 6.0); elution rate: 0.6 mL/min; column temperature: 40° C. By the above-described gel filtration chromatography, the elution times of the conjugate of interest were determined and the molecular weight of the same conjugate was determined from the relationship between the elution times and molecular weights of standard substances. As the standard substances, hyaluronic acid samples were prepared in varying molecular weights and their accurate values were calculated by the limiting viscosity method before it was used.

[4] = Photostability test with additional light-shielding film LUMICOOL 1905 (Example 6); details: for Molecular weight (×10^4), irradiation time 0 h / Molecular weight (×10^4), irradiation time 150 h / Molecular weight (×10^4), irradiation time 300 h / Percent Conjugation (%), irradiation time 0 h / Percent Conjugation (%), irradiation time 150 h / Percent Conjugation (%), irradiation time 300 h: vial wrapped with LUMICOOL 1905;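 for all read-outs here: molecular weight and drug conjugation percentage of the test conjugate, both determined by the method given for the first production procedure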
[5] = additive 1 mg/ml, 4000 Lux, 25° C., not shielded from light
[6] = additive 10 mg/ml, 4000 Lux, 25° C., not shielded from light

Compound: MTX-α-PhePhe-NHC2H4NH-HA [HA-MTX conjugate]
- Fluorescence ([1]; irradiation at 260 nm): −
- Fluorescence ([1]; irradiation at 310 nm): −
- Fluorescence ([1]; irradiation at 360 nm): +
- Fluorescence ([1]; irradiation at 405 nm): +
- main excitation wavelengths ([2]; control solution 1 mg/ml, no photostabilizer): 320-430 nm
- excitation maximum wavelength (Ex λmax) [2]: 380 nm

Compound: N[C@@H](Cc1c[nH]c2ccccc12)C(=O)O [Tryptophan, tryptophan]
- suppressing drops in the molecular weight and percent conjugation ([3]; added at 1 mg/mL, not shielded from light): could suppress drops in the molecular weight and percent conjugation for irradiation periods that did not exceed about 100 hours
- Molecular weight (×10^4), irradiation time 0 h [3, 5]: 188 ×10^4
- Molecular weight (×10^4), irradiation time 25 h [3, 5]: 171 ×10^4
- Molecular weight (×10^4), irradiation time 50 h [3, 5]: 138 ×10^4
- Molecular weight (×10^4), irradiation time 100 h [3, 5]: 112 ×10^4
- Molecular weight (×10^4), irradiation time 150 h [3, 5]: 83 ×10^4
- Molecular weight (×10^4), irradiation time 300 h [3, 5]: 45 ×10^4
- Percent Conjugation (%) of MTX, irradiation time 0 h [3, 5]: 2.2%
- Percent Conjugation (%) of MTX, irradiation time 25 h [3, 5]: 2.2%
- Percent Conjugation (%) of MTX, irradiation time 50 h [3, 5]: 2.2%
- Percent Conjugation (%) of MTX, irradiation time 100 h [3, 5]: 2.2%
- Percent Conjugation (%) of MTX, irradiation time 150 h [3, 5]: 2.1%
- Percent Conjugation (%) of MTX, irradiation time 300 h [3, 5]: 2.2%
- Molecular weight (×10^4), irradiation time 0 h [3, 6]: 181 ×10^4
- Molecular weight (×10^4), irradiation time 25 h [3, 6]: 175 ×10^4
- Molecular weight (×10^4), irradiation time 50 h [3, 6]: 164 ×10^4
- Molecular weight (×10^4), irradiation time 100 h [3, 6]: 118 ×10^4
- Molecular weight (×10^4), irradiation time 150 h [3, 6]: 110 ×10^4
- Molecular weight (×10^4), irradiation time 300 h [3, 6]: 70 ×10^4
- Percent Conjugation (%) of MTX, irradiation time 0 h [3, 6]: 2.2%
- Percent Conjugation (%) of MTX, irradiation time 25 h [3, 6]: 2.3%
- Percent Conjugation (%) of MTX, irradiation time 50 h [3, 6]: 2.2%
- Percent Conjugation (%) of MTX, irradiation time 100 h [3, 6]: 2.2%
- Percent Conjugation (%) of MTX, irradiation time 150 h [3, 6]: 2.2%
- Percent Conjugation (%) of MTX, irradiation time 300 h [3, 6]: 2.2%
- Molecular weight (×10^4), irradiation time 0 h ([4]; additive 1 mg/mL): 188 ×10^4
- Molecular weight (×10^4), irradiation time 150 h ([4]; additive 1 mg/mL): 176 ×10^4
- Molecular weight (×10^4), irradiation time 300 h ([4]; additive 1 mg/mL): 153 ×10^4
- Percent Conjugation (%), irradiation time 0 h ([4]; additive 1 mg/mL): 2.2%
- Percent Conjugation (%), irradiation time 150 h ([4]; additive 1 mg/mL): 2.2%
- Percent Conjugation (%), irradiation time 300 h ([4]; additive 1 mg/mL): 2.2%
- Molecular weight (×10^4), irradiation time 0 h ([4]; additive 10 mg/mL): 181 ×10^4
- Molecular weight (×10^4), irradiation time 150 h ([4]; additive 10 mg/mL): 177 ×10^4
- Molecular weight (×10^4), irradiation time 300 h ([4]; additive 10 mg/mL): 156 ×10^4
- Percent Conjugation (%), irradiation time 0 h ([4]; additive 10 mg/mL): 2.2%
- Percent Conjugation (%), irradiation time 150 h ([4]; additive 10 mg/mL): 2.2%
- Percent Conjugation (%), irradiation time 300 h ([4]; additive 10 mg/mL): 2.2%

Compound: O=S([O-])([O-])=S.[Na+].[Na+] [Na thiosulfate, sodium thiosulfate]
- Molecular weight (×10^4), irradiation time 0 h [3]: 190 ×10^4 and 181 ×10^4
- Molecular weight (×10^4), irradiation time 25 h [3]: 190 ×10^4 and 145 ×10^4
- Percent Conjugation (%) of MTX, irradiation time 0 h [3]: 2.1% and 2.3%
- Percent Conjugation (%) of MTX, irradiation time 25 h [3]: 2.2% and 2.1%
- Percent Conjugation (%) of MTX, irradiation time 50 h [3]: 2.3% and 1.5%
- Percent Conjugation (%) of MTX, irradiation time 100 h [3]: 2.1% and 0.8%
- Percent Conjugation (%) of MTX, irradiation time 150 h [3]: 2.2% and 0.6%
- Percent Conjugation (%) of MTX, irradiation time 300 h [3]: 2.1% and 0.4%
- suppressing drops in the molecular weight and percent conjugation [3]: considerably effective in suppressing drops in the molecular weight and percent conjugation even when the time of irradiation exceeded 100 hours
- Molecular weight (×10^4), irradiation time 0 h ([4]; additive 1 mg/mL): 181 ×10^4
- Molecular weight (×10^4), irradiation time 150 h ([4]; additive 1 mg/mL): 186 ×10^4
- Molecular weight (×10^4), irradiation time 300 h ([4]; additive 1 mg/mL): 180 ×10^4
- Percent Conjugation (%), irradiation time 0 h ([4]; additive 1 mg/mL): 2.3%
- Percent Conjugation (%), irradiation time 150 h ([4]; additive 1 mg/mL): 2.2%
- Percent Conjugation (%), irradiation time 300 h ([4]; additive 1 mg/mL): 2.2%
- Molecular weight (×10^4), irradiation time 0 h ([4]; additive 10 mg/mL): 190 ×10^4
- Molecular weight (×10^4), irradiation time 150 h ([4]; additive 10 mg/mL): 188 ×10^4
- Molecular weight (×10^4), irradiation time 300 h ([4]; additive 10 mg/mL): 186 ×10^4
- Percent Conjugation (%), irradiation time 0 h ([4]; additive 10 mg/mL): 2.1%
- Percent Conjugation (%), irradiation time 150 h ([4]; additive 10 mg/mL): 2.2%
- Percent Conjugation (%), irradiation time 300 h ([4]; additive 10 mg/mL): 2.1%
- stabilizing effects (suppressing effects on the drop in molecular weight and the drop in percent conjugation of MTX) ([4]; with light-shielding film LUMICOOL 1905): comparable to those obtained in the case where complete shielding of light was ensured by aluminum foil
